Patent publication US20260256751A1, “COMBINATION OF BETA-2-ADRENERGIC RECEPTOR AGONISTS AND GLP-1 RECEPTOR AGONISTS FOR USE IN TREATING HYPERGLYCAEMIA” (ATROGI AB, priority 2023, published 2026)

Assays:
[1] = test system: differentiated L6-myotubes; assay: Glucose uptake screen (Biological example 1 of WO 2019/053427); type: cell-based; conditions: compound at 10 μM, activity relative to isoproterenol at 10 μM; for Emax at 10 µM: read-out: Biological example 1 of WO 2019/053427 (GU)
Summary of the method: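 Uptake was read out as ^3H-2-deoxyglucose (50 nM, 10 min) radioactivity in NaOH lysates. Beforehand, overnight-starved, differentiated L6 myotubes received compound at 1×10^−5 M with ICI-118551 present for 1 h 40 min, followed by fresh agonist for a further 20 min in glucose-free medium.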

[2] = test system: differentiated L6-myotubes; assay: cAMP production relative to isoprenaline (Biological example 2 of WO 2019/053427); type: cell-based; conditions: compound at 10 μM, activity relative to isoproterenol at 10 μM; for Emax at 10 µM: 0.25 h
Summary of the method: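 Values are cAMP levels relative to isoprenaline at equal concentration (final 1×10^−5 M for both). Stimulation lasted 15 min in differentiated L6 myotubes, using HBSS buffer (pH 7.4) containing 1 mM IBMX, 5 mM HEPES and 1% BSA.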

Structure (SMILES) | Emax at 10 µM [1] | Emax at 10 µM [2] | Biological example 1 of WO 2019/053427 (GU) [1] | Biological example of WO 2019/053427 (cAMP) [2]
O[C@@H](c1cccc(F)c1)C12CCC(Cc3ccc(F)cc3)(CC1)N2 [Compound 412, (S)-(m-fluorophenyl){4-[(p-fluorophenyl)methyl]-7-azabicyclo[2.2.1]hept-1-yl}methanol] | 50 to 75% | < 25% | – | –
CCC[C@H]1CCC[C@H]([C@@H](O)c2cc(F)cc(F)c2)N1 [Compound 66, (S)-[(2R,6S)-6-propyl-2-piperidyl](3,5-difluorophenyl)methanol] | 25 to 50% | < 25% | – | –
CC(C)(C[C@H]1CC[C@H](NC(=O)c2ccccc2)CC1)NC[C@H](O)c1cccc(F)c1 [Compound 384, N-[(1R,4r)-4-{2-[(R)-2-(m-fluorophenyl)-2-hydroxyethylamino]-2-methylpropyl}cyclohexyl]benzamide] | > 75% | > 75% | – | –
Oc1ccc(C(O)CNCCCC2CC2)cc1 (centres unmarked) [Compound 30, 2-(3-cyclopropylpropylamino)-1-(p-hydroxyphenyl)-1-ethanol] | > 75% | < 25% | – | –
CC1(C)C[C@H]([C@@H](O)c2cccc(Cl)c2)N1 [Compound 233, (S)-[(R)-4,4-dimethyl-2-azetidinyl](m-chlorophenyl)methanol] | < 25% | < 25% | – | –
O[C@@H](c1cccc(F)c1)C12CCC(C/C=C/c3ccccc3)(CC1)N2 [Compound 533, (S)-{4-[(E)-3-phenyl-2-propenyl]-7-azabicyclo[2.2.1]hept-1-yl}(m-fluorophenyl)methanol] | < 25% | < 25% | – | –
O[C@@H](c1cccc(F)c1)[C@H]1CCC2(CCCC2)N1 [Compound 169, (S)-{(R)-1-aza-2-spiro[4.4]nonyl}(m-fluorophenyl)methanol] | < 25% | < 25% | – | –
CC(C)(C[C@H]1CC[C@@H](S(N)(=O)=O)CC1)NC[C@H](O)c1cccc(F)c1 [Compound 517, (1S,4s)-4-{2-[(R)-2-(m-fluorophenyl)-2-hydroxyethylamino]-2-methylpropyl}cyclohexanesulfonamide] | 25 to 50% | < 25% | – | –
CCC[C@H]1CCC[C@H]([C@H](O)c2cncc(F)c2)N1 [Compound 140, (R)-[(2R,6S)-6-propyl-2-piperidyl](5-fluoro-3-pyridyl)methanol] | < 25% | < 25% | – | –
CCC[C@@H]1CCC[C@H]([C@H](O)c2cccc(F)c2)N1 [Compound 59, (R)-[(2R,6R)-6-propyl-2-piperidyl](m-fluorophenyl)methanol] | 25 to 50% | < 25% | – | –
CC(C)(C)NC[C@H](O)c1cncc(Cl)c1 [Compound 138, (R)-2-(tert-butylamino)-1-(5-chloro-3-pyridyl)-1-ethanol] | > 75% | > 75% | – | –
O[C@@H](CNC[C@H]1CC[C@H](O)CC1)c1cccc(F)c1 [Compound 272, (R)-1-(m-fluorophenyl)-2-({[(1r,4R)-4-hydroxycycloehxyl]meth-yl}amino)-1-ethanol] | 25 to 50% | < 25% | – | –
CCCC(C)NC(C)C(O)c1ccc(O)cc1 (centres unmarked) [Compound 13, 1-(p-hydroxyphenyl)-2-(1-methylbutylamino)-1-propanol] | 50 to 75% | < 25% | – | –
CC12CC(C1)[C@@H]([C@H](O)c1cccc(N)c1F)N2 [Compound 244, (R)-{(S)-1-methyl-2-azabicyclo[2.1.1]hex-3-yl}(3-amino-2-fluorophenyl)methanol] | 50 to 75% | < 25% | – | –
CCCC(C)NCC(O)c1cc(Cl)c(O)c(Cl)c1 (centres unmarked) [Compound 25, 1-(3,5-dichloro-4-hydroxyphenyl)-2-(1-methylbutylamino)-1-ethanol] | < 25% | < 25% | – | –
CC1(C)CC[C@H]([C@H](O)c2cccc(F)c2)N1 [Compound 110, (R)-[(R)-5,5-dimethyl-2-pyrrolidinyl](m-fluorophenyl)methanol] | > 75% | < 25% | – | –
CC1(C)CC[C@H]([C@@H](O)c2ccccc2Cl)N1 [Compound 151, (S)-[(R)-5,5-dimethyl-2-pyrrolidinyl](o-chlorophenyl)methanol] | – | < 25% | − (less than 25%) | –
CC(=O)N[C@H]1CC[C@H](C[C@@H]2CC[C@H]([C@H](O)c3cccc(F)c3)N2)CC1 [Compound 485, N-[(1S,4r)-4-({(2S,5R)-5-[(R)-(m-fluorophenyl)hydroxymethyl]-2-pyrrolidinyl}methyl)cyclohexyl]acetamide] | 50 to 75% | < 25% | – | –
CCCCNC[C@H](O)c1cccc(F)c1 [Compound 47, (R)-2-(butylamino)-1-(m-fluorophenyl)-1-ethanol] | 50 to 75% | < 25% | – | –

Structure (SMILES) | Emax at 10 µM [1] | Emax at 10 µM [2] | Biological example 1 of WO 2019/053427 (GU) [1] | Biological example of WO 2019/053427 (cAMP) [2]
O=C(N[C@H]1CC[C@H](CNC[C@H](O)c2cncc(F)c2)CC1)c1ccccc1 [Compound 317, N-[(1R,4r)-4-{[(R)-2-(5-fluoro-3-pyridyl)-2-hydroxyethylamino]methyl}cyclohexyl]benzamide] | 50 to 75% | < 25% | – | –
CC(C)(C)NCC(O)c1ccncc1O (centres unmarked) [Compound 134, 4-[2-(tert-butylamino)-1-hydroxyethyl]-3-pyridinol] | > 75% | < 25% | – | –
CO[C@H]1CC[C@H](CCNC[C@H](O)c2cccc(F)c2)CC1 [Compound 224, (R)-1-(m-fluorophenyl)-2-{2-[(1r,4R)-4-methoxycyclohexyl]ethyl-amino}-1-ethanol] | 25 to 50% | < 25% | – | –
O[C@@H](CNCCC[C@H]1CC[C@H](OCc2ccccc2)CC1)c1cccc(F)c1 [Compound 278, (R)-1-(m-fluoropheny)-2-{3-[(1r,4S)-4-(benzyloxy)cyclohexyl]pro-pylamino}-1-ethanol] | 25 to 50% | < 25% | – | –
O[C@@H](CNCC[C@H]1CC[C@H](OCc2ccccc2)CC1)c1cncc(F)c1 [Compound 292, (R)-1-(5-fluoro-3-pyridyl)-2-{2-[(1r,4R)-4-(benzyloxy)cyclohexyl]ethylamino}-1-ethanol] | < 25% | < 25% | – | –
CC(C)(CC[C@H]1CC[C@@H](C(=O)O)CC1)NC[C@H](O)c1cccc(F)c1 [Compound 352, (1S,4s)-4-{3-[(R)-2-(m-fluorophenyl)-2-hydroxyethylamino]-3-methylbutyl}cyclohexanecarboxylc acid] | 25 to 50% | < 25% | – | –
CCC[C@@H]1CC[C@H]([C@H](O)c2cccc(Cl)c2)N1 [Compound 141, (R)-[(2R,5R)-5-propyl-2-pyrrolidinyl](m-chlorophenyl)methanol] | 50 to 75% | < 25% | – | –
CC1(C)C[C@@H]([C@@H](O)c2cccc(Cl)c2)N1 [Compound 231, (S)-[(S)-4,4-dimethyl-2-azetidinyl](m-chlorophenyl)methanol] | 25 to 50% | < 25% | – | –
CCC[C@@H]1CC[C@H]([C@H](O)c2cncc(F)c2)N1 [Compound 161] | – | – | + (between 50 and 25%) | − (less than 25%)
CCCC12CCC([C@H](O)c3cccc(F)c3)(CC1)N2 [Compound 183, (R)-(m-fluorophenyl)(4-propyl-7-azabicyclo[2.2.1]hept-1-yl)methanol] | 50 to 75% | 25 to 50% | – | –
O[C@@H](CNC[C@H]1CC[C@H](OCc2ccccc2)CC1)c1cncc(F)c1 [Compound 273, (R)-1-(5-fluoro-3-pyrdiyl)-2-({[(1r,4R)-4-(benzyloxy)cyclohexyl]methyl}amino)-1-ethanol] | 25 to 50% | < 25% | – | –
CC1(C)C[C@H]([C@H](O)c2cccc(Cl)c2)N1 [Compound 230, (R)-[(R)-4,4-dimethyl-2-azetidinyl](m-chlorophenyl)methanol] | > 75% | < 25% | – | –
CC12CCC([C@H](O)c3cccc(F)c3)(CC1)N2 [Compound 179, (R)-(m-fluoropehnyl)(4-methyl-7-azabicyclo[2.2.1]hept-1-yl)methanol] | 50 to 75% | < 25% | – | –
CO[C@H]1CC[C@H](C[C@@H]2CC[C@H]([C@H](O)c3cccc(F)c3)N2)CC1 [Compound 326, (R)-[(2R,5S)-5-{[(1r,4S)-4-methoxycyclohexyl]methyl}-2-pyrrolidinyl](m-fluorophenyl)methanol] | > 75% | < 25% | – | –
O[C@H](c1cccc(F)c1)C12CCC(COCc3ccc(F)cc3)(CC1)N2 [Compound 439, (R)-(m-fluorophenyl)(4-{[(p-fluorophenyl)methoxy]methyl}-7-azabicyclo[2.2.1]hept-1-yl)methanol] | > 75% | 25 to 50% | – | –
CCC[C@@H](C)NC[C@H](O)c1cccc(F)c1 [Compound 50, (R)-2-[(R)-1-methylbutylamino]-1-(m-fluorophenyl)-1-ethanol] | > 75% | < 25% | – | –
CO[C@H]1CC[C@H](C[C@@H]2CC[C@H]([C@@H](O)c3cncc(F)c3)N2)CC1 [Compound 332, (S)-[(2R,5S)-5-{[(1r,4S)-4-methoxycyclohexyl]methyl}-2-pyrrolidinyl](5-fluoro-3-pyridyl)methanol] | 25 to 50% | < 25% | – | –
CC12CCC([C@H](O)c3cncc(F)c3)(CC1)N2 [Compound 185, (R)-(5-fluoro-3-pyridyl)(4-methyl-7-azabicyclo[2.2.1]hept-1-yl)methanol] | > 75% | < 25% | – | –
